Test results reported in ChEMBL document CHEMBL6092140, “Structure-activity relationship study of small-molecule inhibitor of Atg12-Atg3 protein-protein interaction” (Bioorg Med Chem Lett, 2024).
The source made the active and inactive calls. The calls are words filed in the database; no cut-off is given here.

Key:
[1] = Inhibition of wild type ATG12-ATG3 protein protein interaction (unknown origin) expressed in HEK293T cells preincubated for ATG12 for 1 hr followed by ATG3 addition by luminescence based microplate analysis; type: cell-based, Homo sapiens
[2] = target: Casein kinase II subunit alpha' (Homo sapiens) (UniProt P19784); experiment: Inhibition of […] (unknown origin) assessed as residual activity relative to control; set-up: concentration or dose not given beside the values
Sequence of Casein kinase II subunit alpha' (Homo sapiens) (P19784 whole entry, looked up): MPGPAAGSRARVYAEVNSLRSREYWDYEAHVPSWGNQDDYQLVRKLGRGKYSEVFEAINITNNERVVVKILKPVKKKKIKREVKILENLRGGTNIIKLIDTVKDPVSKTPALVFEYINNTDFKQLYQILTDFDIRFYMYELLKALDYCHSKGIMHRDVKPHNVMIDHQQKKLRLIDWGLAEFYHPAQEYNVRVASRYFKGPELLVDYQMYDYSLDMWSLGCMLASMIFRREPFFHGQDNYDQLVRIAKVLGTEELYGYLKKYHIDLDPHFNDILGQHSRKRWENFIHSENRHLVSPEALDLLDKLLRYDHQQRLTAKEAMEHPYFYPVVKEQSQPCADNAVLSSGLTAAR

IC50 [1] [µM] | Activity [2] | Structure (SMILES)
92 | 105% | CC1=CN2C(Nc3cccc(Cl)c3)=Nc3cc(-c4noc(=O)[nH]4)ccc3C2N1 (centres undefined)
> 99 | 72% | Cc1cn2c(NC3CCCCC3)nc3cc(C(=O)O)ccc3c2n1
19 | 1% | Cn1ncc2c3ccc(C(=O)O)cc3nc(Nc3cccc(Cl)c3)c21
16 | 1% | O=C(O)c1ccc2c(c1)nc(Nc1cccc(Cl)c1)c1ncsc12
10 | 28% | O=C(O)c1ccc2c(c1)nc(Nc1cccc(Cl)c1)c1cnccc12
> 99 | 109% | CC1=CN2C(Nc3cccc(Cl)c3)=Nc3cc(C(N)=O)ccc3C2N1 (centres undefined)
62 | -4% | O=C(O)c1ccc2cnc(Nc3cccc(Cl)c3)nc2c1
> 99 | 76% | Cc1cn2c(Nc3ccc(Cl)cc3)nc3cc(C(=O)O)ccc3c2n1
27 | 2% | O=C(O)c1ccc2c(c1)nc(Nc1cccc(Cl)c1)c1ccncc12 [SILMITASERTIB]
60 | 128% | O=C(O)c1ccc2c(c1)N=C(Nc1cccc(Cl)c1)N1CCN=C21
42 | 35% | Cn1ncc2c(Nc3cccc(Cl)c3)nc3cc(C(=O)O)ccc3c21
72 | 52% | O=c1[nH]nc(-c2ccc3c(c2)nc(Nc2cccc(Cl)c2)c2cccnc23)o1
> 99 | 101% | O=C(O)c1ccc2c(Cc3ccccc3)cc(Nc3cccc(Cl)c3)nc2c1
30 | 48% | Cc1cn2c(Nc3cccc(C(F)(F)F)c3)nc3cc(C(=O)O)ccc3c2n1
6 | 13% | O=C(O)c1ccc2c(c1)nc(Nc1cccc(Cl)c1)c1cccnc12
> 99 | 87% | O=C(O)c1ccc2c(c1)N=C(Nc1cccc(Cl)c1)N1CCCN=C21
24 | 20% | CCc1cn2c(Nc3cccc(Cl)c3)nc3cc(C(=O)O)ccc3c2n1
45 | 36% | O=C(O)c1ccc2c(c1)nc(Nc1cccc(Cl)c1)c1ccccc12
91 | 50% | COc1nc(Nc2cccc(Cl)c2)nc2cc(C(=O)O)ccc12
50 | 20% | O=C(O)c1ccc2ccc(Nc3cccc(Cl)c3)nc2c1
53 | inactive | CC(=O)Oc1ccc(COC(=O)c2ccc3c(c2)nc(Nc2cccc(Cl)c2)c2cccnc23)cc1
24 | 29% | Cc1cnc2c3ccc(C(=O)O)cc3nc(Nc3cccc(Cl)c3)n12
14 | 31% | O=C(O)c1ccc2c(c1)nc(Nc1cccc(Cl)c1)n1ccnc21
> 99 | 96% | O=C(O)c1ccc2c(Cc3ccccc3)nc(Nc3cccc(Cl)c3)nc2c1

IC50 [1] [µM] | Activity [2] | Structure (SMILES)
> 99 | 104% | Cc1cn2c(NC(C)(C)C)nc3cc(C(=O)O)ccc3c2n1
41 | 31% | Cc1cn2c(Nc3cccc(C(C)C)c3)nc3cc(C(=O)O)ccc3c2n1
62 | 55% | Cn1cnc2c3ccc(C(=O)O)cc3nc(Nc3cccc(Cl)c3)c21
90 | 35% | Cc1cn2c(Nc3cccc(F)c3)nc3cc(C(=O)O)ccc3c2n1
9 | 114% | O=C(O)c1ccc2c(c1)nc(Nc1cccc(Cl)c1)n1cc(-c3ccccc3)nc21
> 99 | 75% | Cc1cn2c(N(C)c3cccc(Cl)c3)nc3cc(C(=O)O)ccc3c2n1
14 | -1% | O=C(O)c1ccc2c(c1)nc(Nc1cccc(Cl)c1)c1ccsc12
8 | 26% | Cc1cn2c(Nc3cccc(Cl)c3)nc3cc(C(=O)O)ccc3c2n1
11 | -1% | Cc1nsc2c1c(Nc1cccc(Cl)c1)nc1cc(C(=O)O)ccc12
24 | 102% | Cc1cn2c(Nc3cccc(C(C)(C)C)c3)nc3cc(C(=O)O)ccc3c2n1
64 | 53% | Clc1cccc(Nc2nc3cc(-c4nnn[nH]4)ccc3c3ncccc23)c1
14 | 81% | O=C(O)c1ccc2c(c1)nc(Nc1cccc(Cl)c1)n1cc(Cc3ccccc3)nc21
30 | 105% | CC(C)c1cn2c(Nc3cccc(Cl)c3)nc3cc(C(=O)O)ccc3c2n1
51 | 4% | O=C(O)c1ccc2c(c1)nc(Oc1cccc(Cl)c1)c1ccncc12
8 | 38% | Cc1cn2c(Nc3cccc(C#N)c3)nc3cc(C(=O)O)ccc3c2n1
14 | 33% | Cc1scc2c1c(Nc1cccc(Cl)c1)nc1cc(C(=O)O)ccc12
> 99 | inactive | N/C(=N\O)c1ccc2c(c1)nc(Nc1cccc(Cl)c1)c1cccnc12
25 | 83% | Cc1cn2c(NC34CC5CC(CC(C5)C3)C4)nc3cc(C(=O)O)ccc3c2n1
> 99 | 95% | Cc1cn2c(Nc3cccc(Cl)c3)nc3cc(P(=O)(O)O)ccc3c2n1
73 | 80% | CC1=CN2C(Nc3cccc(Cl)c3)=Nc3cc(-c4nnn[nH]4)ccc3C2N1 (centres undefined)
71 | 73% | Cc1cn2c(Nc3ccnc(Cl)c3)nc3cc(C(=O)O)ccc3c2n1
10 | 11% | Cc1cn2c(Nc3cccc(I)c3)nc3cc(C(=O)O)ccc3c2n1
37 | 42% | Cc1cn2c(Nc3cccc(OC(F)(F)F)c3)nc3cc(C(=O)O)ccc3c2n1
